From patent publication EP1625854B1, “Albumin conjugates containing a glucuronic linker” (Deutsches Krebsforschungszentrum Stiftung des öffentlichen …, priority 2004, dated 2006)

Tests used:
WEHI-7 cells = experiment: Induction of cell death in glucocorticoid-sensitive WEHI-7 cells (propidium iodide staining, fluorimetric analysis); format: cell-based, mouse
Method: Cell death in glucocorticoid-sensitive WEHI-7 cells was induced by incubation with low molecular hydrocortisone (HC) and albumin-coupled hydrocortisone (hydrocortisone-21-β-D-glucuronide-HSA; HCG-HSA) over a period of 72 h. Different albumin concentrations were equalized by addition of free HSA. Dead cells were determined by fluorimetric analysis (staining with propidium iodide (PI)). […] Since the albumin conjugate was taken up by the cells via endocytosis (whereas the free HC passes the cell membrane via diffusion) HCG-HSA has to be applied in a two-fold concentration for achieving the same effect.

[1] = test system: synovial fibroblasts (sFb); experiment: Release of a fluorescent aglycon (methyl umbelliferon) from MUG-HSA in human synovial fibroblasts; format: cell-based
Text: (§1) The amounts given in the Figure relate to 1 well and the methyl umbelliferon glucuronide within the HSA conjugate. After addition of 1 M NaOH methyl umbelliferon was fluorimetrically determined in the cell subernatant at 448 nm with an excitation at 360 nm. […] Thus, despite its coupling to albumin MUG-HSA is a substrate for human synovial fribroblasts. MUG-(HSA) is stable in medium without cells.

[2] = Stability of MUG-HSA in medium without cells; format: in vitro ADME
Text: as §1

hydrocortisone-21-β-D-glucuronide-HSA [HCG-HSA]
concentration for achieving the same effect (WEHI-7 cells; HCG-HSA relative to free HC, WEHI-7 cells, 72 h): two-fold
activity as a glucocorticoid (WEHI-7 cells; despite coupling to albumin, WEHI-7 cells, 72 h): keeps its activity
Cell death (WEHI-7 cells; incubation over 72 h, albumin concentrations equalized with free HSA, dead cells by PI staining, Figure 3): dose dependent cell death

methyl umbelliferon glucuronide-HSA [MUG-HSA]
cleavage of fluorescent methyl umbelliferon ([1]; in conditioned medium of synovial fibroblasts): could be demonstrated
Cleavage ([1]; incubation for 24 h in synovial fibroblasts, methyl umbelliferon fluorimetrically determined in supernatant at 448 nm, excitation 360 nm, Figure 4): could be demonstrated
stability in medium [2]: stable
